According to patent publication US20170281651A1, “CONCOMITANT ADMINISTRATION OF GLUCOCORTICOID RECEPTOR MODULATORS AND CYP3A OR STEROIDOGENESIS INHIBITORS” (Corcept Therapeutics, Inc., priority 2017, published 2017):

Columns and labels:
Type in all cases: in vivo, human
[1] = Example 3: Phase 1 study of ketoconazole 200 mg twice daily with mifepristone 600 mg once daily with food, plasma PK incl. cross-study comparison; settings: for mean increase / change in exposure on co-administration with ketoconazole: 600 mg mifepristone once daily with 200 mg ketoconazole twice daily; for effect of ketoconazole on exposure (90% CI vs standard 80:125 interval): Day 17 vs Day 12; for concentrations on Day 17 compared with Day 12: Day 17 with 200 mg ketoconazole twice daily, Day 12 mifepristone alone; for AUC0-24 Ratio % Test/Ref (cross-study, geometric mean ratio) / Cmax Ratio % Test/Ref (cross-study, geometric mean ratio): Test: Present Study Day 17 600 mg mifepristone OD + 200 mg Ketoconazole BID, Reference: Historic Study Day 7 1200 mg mifepristone OD alone, after 34% fat meal
[2] = Example 1: safety (adverse events, laboratory tests, ECG); settings: mifepristone 300 mg single dose with ketoconazole for 14 days
Description: In cohort 1, six subjects received ketoconazole 400 mg OD for 14 days.
In cohort 2, six subjects received ketoconazole 200 mg BID for 14 days. […] All 12 subjects completed the study. Cohort 2 subjects participated in a Screening visit to assess eligibility and a check-in Day (Day −1) during which eligibility was re-confirmed. […] The evening of Day 1, subjects received 200 mg oral ketoconazole. Subjects remained in the clinic on Days 2, 3 and 4 to receive 200 mg BID oral ketoconazole, and for safety evaluation and collection of blood pharmacokinetic (PK) samples. Subjects were discharged from the clinic on Day 4 following evening administration of 200 mg oral ketoconazole, and returned to the clinic the morning and evening of Days 5 through 13 to receive 200 mg BID oral ketoconazole. Morning doses of ketoconazole on Days 0-13 were administered in the fasted state.
Subjects in both cohorts returned to the study center on Day 15 for safety monitoring, and completion of the Termination Visit procedures, followed by discharge from the study. Safety was assessed by spontaneously reported adverse events, physical examinations, and routine clinical laboratory tests. To the extent possible, any adverse events deemed study drug-related and that were ongoing at the time of discharge from the study were followed-up to resolution or until a determination is made that the unresolved event was stable.

[3] = Example 2: effect of a 400 mg single dose of ketoconazole on PK of an 8-day regimen of 300 mg or 600 mg OD mifepristone, moderate fat breakfast
Description: This was an open-label study in healthy male subjects. […] The 400 mg single dose of ketoconazole was given to all subjects on day 8.
METHODOLOGY: Twelve subjects were enrolled, six in Cohort 1 and 6 in Cohort 2.
Subjects were discharged on Day 11.
Subjects were discharged on Day 11. Subjects in both cohorts returned to study center on Day 13 for safety monitoring, collection of the 120-hour PK draw, and completion of the Termination Visit procedures, followed by discharge from the study. To the extent possible, any adverse events deemed study drug-related and that were ongoing at the time of discharge from the study were followed-up to resolution or until a determination was made that the unresolved event was stable.
DIAGNOSIS AND MAIN […] FOR INCLUSION: Healthy male volunteers between the ages of 18 to 45 years of age with a body mass index (BMI) ranging between 19 and 32 kg/m2 and a weight of at least 60 kg (132 lbs) were enrolled. Subjects had no clinically significant abnormal findings on the physical examination, ECG, blood pressure, heart rate, medical history, or clinical laboratory results during screening. The QTc interval at screening was less than 450 msec.
DURATION OF TREATMENT: Up to a total of 28 days, including up to 2 weeks screening, dosing on Days 1-8, safety observation, and PK sample collection through Day 13.
Additionally, comparisons were made between the PK results of cohort 1 and 2. Pharmacokinetic parameters Cmax, T1/2 and total AUC were calculated for plasma concentrations of ketoconazole following the single dose on Day 8. Descriptive statistics (count, mean, median, standard deviation, minimum, maximum, and % coefficient of variation) were provided. Ketoconazole concentrations were listed and summarized. GM means of Cmax and total AUC were compared for the single dose in this study to the combined data of reported 400 mg single doses of ketoconazole of healthy subjects from the literature.

[4] = Test: Day 17 600 mg mifepristone OD + 200 mg Ketoconazole BID, Reference: Day 12 600 mg mifepristone OD
[5] = single 400 mg ketoconazole dose on Day 8
[6] = 400 mg ketoconazole (200 mg twice per day) concomitantly with 600 mg mifepristone per day, fifth day
[7] = Test: Day 17 600 mg mifepristone OD + 200 mg Ketoconazole BID, Reference: Day −1 200 mg Ketoconazole Single Dose

Compound	mean increase / change in exposure on co-administration with ketoconazole [1]	effect of ketoconazole on exposure (90% CI vs standard 80:125 interval) [1]	concentrations on Day 17 compared with Day 12 [1]	AUC0-24 Ratio % Test/Reference (geometric mean ratio) [1, 4]	Cmax Ratio % Test/Reference (geometric mean ratio) [1, 4]	AUC0-24 Ratio % Test/Ref (cross-study, geometric mean ratio) [1]	Cmax Ratio % Test/Ref (cross-study, geometric mean ratio) [1]	TEAEs considered by the investigator to be related to the drug [2]	AUCinf higher on 600 mg OD mifepristone regimen relative to 300 mg OD [3, 5]	Cmax higher on 600 mg OD mifepristone regimen relative to 300 mg OD [3, 5]	half-life on either mifepristone regimen ([3]; single 400 mg ketoconazole dose on Day 8, mifepristone 300 vs 600 mg OD)	increase in ketoconazole AUC [1, 6]	increase in ketoconazole Cmax [1, 6]	AUC Ratio % Test/Reference (geometric mean ratio) [1, 7]	Cmax Ratio % Test/Reference (geometric mean ratio) [1, 7]	mean metabolite exposure compared with mifepristone ([3]; 300 or 600 mg OD mifepristone, Days 7-13)	share of total steady-state AUC0-24 of mifepristone, RU42633, RU42698, RU42848 ([1]; in the presence of ketoconazole)	share of total steady-state AUC0-24 of mifepristone, RU42633, RU42698, RU42848 ([1]; mifepristone alone)
CC#C[C@]1(O)CC[C@H]2[C@@H]3CCC4=CC(=O)CCC4=C3[C@@H](c3ccc(NC)cc3)C[C@@]21C [RU 42633, (8S,11R,13S,14S,17S)-17-hydroxy-13-methyl-11-[4-(methylamino)phenyl]-17-prop-1-ynyl-1,2,6,7,8,11,12,14,15,16-decahydrocyclopenta[a]phenanthren-3-one]	little change	not affected	similar	102.33%	105.73%	91.34%	96.31%	–	–	–	–	–	–	–	–	–	–	–
CC#C[C@]1(O)CC[C@H]2[C@@H]3CCC4=CC(=O)CCC4=C3[C@@H](c3ccc(N)cc3)C[C@@]21C [RU 42848, (8S,11R,13S,14S,17S)-11-(4-aminophenyl)-17-hydroxy-13-methyl-17-prop-1-ynyl-1,2,6,7,8,11,12,14,15,16-decahydrocyclopenta[a]phenanthren-3-one]	little change	not affected	similar	94.88%	95.48%	81.43%	82.45%	–	–	–	–	–	–	–	–	–	–	–
CC(=O)N1CCN(c2ccc(OCC3COC(Cn4ccnc4)(c4ccc(Cl)cc4Cl)O3)cc2)CC1 (centres unmarked) [ketoconazole, 1-acetyl-4-[4-[[2-(2,4-dichlorophenyl)-2-[(1H-imidazol-1-yl)-methyl]-1,3-dioxolan-4-yl]methoxy]phenyl]piperazine]	–	–	–	–	–	–	–	One TEAE of insomnia	36%	37%	not appreciably different	253%	365%	365.36%	252.71%	–	–	–
CN(C)c1ccc([C@H]2C[C@@]3(C)[C@@H](CC[C@@]3(O)C#CCO)[C@@H]3CCC4=CC(=O)CCC4=C32)cc1 [RU 42698, (8S,11R,13S,14S,17S)-11-[4-(dimethylamino)phenyl]-17-hydroxy-17-(3-hydroxyprop-1-ynyl)-13-methyl-1,2,6,7,8,11,12,14,15,16-decahydrocyclopenta[a]phenanthren-3-one]	approximately 70%	increased	higher	166.86%	169.13%	118.18%	116.55%	–	–	–	–	–	–	–	–	lower	13%	9%
